# Laboratory results reported in US20170107486A1, “HEPATOCYTE PRODUCTION VIA FORWARD PROGRAMMING BY COMBINED GENETIC AND CHEMICAL ENGINEERING” (Cellular Dynamics International, Inc., priority 2014, published 2017).
# Key:
# [1] = system: human rtTET-expressing ESCs transfected with GFH, H1ANR3 and TBX3; assay: Hepatic programming efficiency, albumin (ALB) flow analysis; type: cell-based; conditions: for % ALB-expressing cells (hepatic programming efficiency): 0.5 μM added alone along with doxycycline between day 1 and day 7 post-plating, ALB flow analysis on day 13, FIG. 6
# Excerpt: Genes that are either implicated in hepatic differentiation during normal mammalian development or enriched in adult hepatocytes were cloned into the PiggyBac vector (FIG. 3) under the control of the […] promoter (Table 1). To find transcription factors that are able to directly impose mature hepatic fate upon human ESCs, various combinations of transgene-expressing PiggyBac vectors along with the hPBase-expressing vector were introduced into the human ESCs having constitutive expression of rtTET through nucleofection (Minis Ingenio Electroporation solution: cat# MIR50114; program: Amaxa B-016). Nucleofected human ESCs were cultured on matrigel in mTeSR1 (Stem Cell Technologies). Following geneticin (100 μg/ml) selection for stable genomic transgene integration (cells were passaged at lease once prior to differentiation), human ESCs were individualized by accutase treatment and plated to matrigel-coated 12-well plates. Doxycycline (1 μg/ml) was added the next day to induce transgene expression in Hepatocyte Maintenance Medium (HMM, Lonza) supplemented with 0.5 μg/ml insulin, 0.1 μM dexamethasone (dex), and 50 ng/ml Oncostatin M (OSM). After transgene induction for the appropriate number of days, doxycycline was removed, and cells were allowed to transition to hepatocyte-like cells and were maintained in HMM supplemented with 0.5 μg/ml insulin, 0.1 μM dex, and 50 ng/ml OSM prior to characterization. Where appropriate, small molecules, such as MEK inhibitor PD0325901, […] kinase/activin receptor like kinase (ALK5) inhibitor A 83-01, and an analogue of the natural signaling molecule cyclic AMP 8-Bromoadenosine 3',5'-cyclic monophosphate (8-Br-cAMP), were added during hepatic programming. To determine the effect of MEK inhibitor PD0325901 (P) and TGFβ kinase/activin receptor like kinase (ALK5) inhibitor A 83-01 (A) on hepatic programming efficiency, human rtTET-expressing ESCs transfected with […]3 and TBX3 were plated on matrigel-coated 12-well plates at about 0.2×10^6 cells/well in mTeSR supplemented with 10 μM HA100 on day 0. PD0325901 (0.5 μM), A 83-01 (0.5 μM) or both were added along with doxycycline between day 1 and day 7 post-plating. Cells were collected for albumin (ALB) flow analysis on day 13 post-plating. […] To determine the effect of cyclic AMP analog 8-Br-cAMP on hepatic programming, human rtTET-expressing ESCs transfected with […]3 and TBX3 were plated on matrigel-coated 12-well plates at about 0.2×10^6 cells/well in mTeSR supplemented with 10 μM HA100 on day 0. Doxycycline (1 μg/ml), P and A were added between day 1 and day 7 post-plating. Following the removal of doxycycline, P and A on day 7, different concentrations of 8-Br-cAMP were added to promote hepatic transition. Cells were collected for ALB flow analysis on day 13 post-plating.
# [2] = system: MEK1 and MEK2; conditions: Bain et al., 2007; cited from earlier work
smiles,measurement,setting,value
"Nc1ncnc2c1nc(Br)n2[C@@H]1O[C@@H]2COP(=O)(O)O[C@H]2[C@H]1O [8-Br-cAMP, 8-Bromoadenosine 3′,5′-cyclic monophosphate]",saturation concentration for improvement of hepatic programming,"[1]; added from day 7 after removal of doxycycline, P and A, ALB flow analysis day 13, FIG. 8",~200 µM
same,hepatic programming (ALB flow analysis),"[1]; different concentrations added from day 7 after removal of doxycycline, P and A, ALB flow analysis day 13, FIG. 8",significantly improved
Cc1cccc(-c2nn(C(=S)Nc3ccccc3)cc2-c2ccnc3ccccc23)n1 [A 83-01],% ALB-expressing cells (hepatic programming efficiency),[1],significantly improves
O=C(NOCC1CC1)c1ccc(F)c(F)c1Nc1ccc(I)cc1Cl [PD184352],specificity and potency compared to other known MEK inhibitors,[2],high degree of specificity and potency
O=C(NOC[C@H](O)CO)c1ccc(F)c(F)c1Nc1ccc(I)cc1F [PD0325901],% ALB-expressing cells (hepatic programming efficiency),[1],significantly improves
